These results are taken from US20220411847A1, “GLUCOSE/GALACTOSE BIOSENSORS AND METHODS OF USING SAME” (Duke University, priority 2015, published 2022).

Data set [1] in a line: Isothermal glucose titrations from fluorescent landscapes (Roche LightCycler). In kind it is binding. As to the method: (§1) The titration series were mixed with GGBP183C⋅acrylodan or BD_SM4⋅acrylodan conjugates in 384-well microtiter plates. The temperature dependence of the titrations was measured in a real-time PCR machine (Roche LightCycler 480) by determining the ratio of fluorescence emission intensities at 488, 510, and 580 nm (excitation at 440 nm) as a function of temperature (290-370K). Temperatures were advanced in 1K steps. At each temperature data was collected for at 1-second intervals for 60 seconds at which point the signal had relaxed to a steady value associated with the new temperature. Collection times were adjusted to minimize photobleaching (which was not detectable under these experimental conditions). Data reduction software was developed to convert these observations into time-independent datasets that record fluorescence as a function of temperature for each well and associate wells with their concentration of titrant and additive. Management tools were developed to maintain a database of titrations and their analyses.
The response of acrylodan to glucose binding was separated from the effects of thermal denaturation by extracting binding isotherms within the temperature range where the apo-protein remains >99% folded (T<320 K; FIG. 7). Within this temperature range, binding isotherms were constructed by extracting fluorescence values across different wells, each containing different glucose concentrations, at a given temperature, and fit individually with high accuracy to isotherms (FIG. 8):
using linear baselines which vary individually in accordance with the tilt of the S, S1, and S2 baseplanes that correspond the saturated glucose complex. The individually fit Kd(T) values were converted into ΔGb(T) and fit to the Gibbs-Helmholtz equation 9 (FIG. 9).
(§2) Analysis of mutant affinity values: Isothermal glucose titrations were extracted from the fluorescent landscape or emission datasets as described above. Monochromatic emission intensities Iλ. (these intensities correspond to a bandpass intensity recorded with a physical filter in the case of the Roche LightCycler) were fit to
(§3) where ^apoIλ2 ^apoIλ2 and ^satIλ2^satIλ2 are the emission intensities of the monochromatic signal at wavelength λ2λ2 of the ligand-free and ligand-bound protein, respectively. Equation 28 illustrates that the ^appKd ^appKd values obtained by fits of 25 to ratiometric signals are wavelength dependent. To obtain wavelength-independent values needed for comparison of mutant proteins, it is necessary to simultaneously fit ^appKd ^appKd to the ratiometric signal and ^trueKd ^trueKd to the two monochromatic signals. For a given isothermal titration, values for ^appKd ^appKd and ^trueKd ^trueKd were obtained using a non-linear fitting algorithm in which these two parameters were simultaneously fit to the three experimental binding isotherms using equations 23 and 27, with the two monochromatic isotherms sharing the same ^trueKd ^trueKd value. Three separate pairs of linear ^apoβ ^apoβ and ^satβ ^satβ baselines were fit in this procedure. TABLES 1-5 record the ^trueKd ^trueKd values at 25° C., obtained by analysis of Roche LightCycler data in 488 nm and 510 nm channels. The uncertainty of the fit (‘error’) was obtained using a boot-strapping technique in which 37% of the data was replicated. In all cases, no binding was recorded if one of ^appKd ^appKd or ^trueKd ^trueKd exceeded 200 mM. The glucose constant of GGBP183 C-acrylodan is 4.21±0.08 mM at 25° C.

A short description of data set [2]: Galactose affinities of the mutants that bind glucose (Roche LightCycler). It is filed as binding. The settings on record: trueKd at 25° C., 183C acrylodan conjugates, read-out: Kd^298K(galactose)/mM.
Text: as §2, §3
The galactose affinities for those mutants that bind glucose were also determined.

The nature of data set [3]: Thermal denaturation followed by fluorescence ratio, two-state fit. In kind it is physicochemical. To be noted: for Tm/K: thermal stability of the 183C acrylodan conjugate mutant. As to the method: as §1
Fits of these equation systems to experimental observations such as shown in FIG. 5 require good initial estimates of the parameters. These can then be refined using multi-dimensional conjugate gradient methods. To obtain local fits for protein thermostability in the absence of ligand we solve
This gives excellent fits (FIG. 7).

Data set [4] in a line: Glucose titration at room temperature on Nanodrop3300 fluorimeter. In kind it is binding. As to the method:
(§4) In addition to the Roche LightCycler, which has a limited choice of emission wavelengths, data for selected mutants also was measured at room temperature on a Nanodrop3300 (Thermo Scientific) fluorimeter, which records full emission spectra. Emission intensities at a particular wavelength were extracted by integration of the spectral emission intensities over a 20-nm interval centered on that wavelength.
(§5) Signals S (either single-wavelength emission intensities, LT, or ratios of intensities at two wavelengths, Rig) were fit to ligand-binding isotherms:
(§6) where [L] is the ligand concentration and Kd the dissociation constant corresponding to ^appKd or ^trueKd for fits to R12 (weighted by the relative contributions of ^satβ at the two different wavelengths) and Iλ respectively. For a given isothermal titration, values for ^appKd and ^true Kd were obtained using a non-linear fitting algorithm in which these two parameters were simultaneously fit to the three experimental binding isotherms using equations 29 and 30, with the two monochromatic isotherms sharing the same ^trueKd value. Three separate pairs of ^apoβ and ^satβ were fit in this procedure.

The nature of data set [5]: Isothermal glucose titrations from fluorescent landscapes (Roche LightCycler). In kind it is binding. The source holds these as a separate data set.
Data set [6] in a line: Fluorescence emission response to ligand binding. Details: key to Response Intensity^c: +, increases in response to ligand; —: decreases; 0, no change in the glucose titration; key to Response Shape^b: m, monochromatic; d, dichromatic (i.e. spectral shape changes); 0, no change in the glucose titration. To be noted: for Response Intensity^c / Response Shape^b: glucose titration, Nanodrop3300, room temperature. As to the method: as §1, §4

Data set [7] in a line: Galactose titration at room temperature on Nanodrop3300 fluorimeter. In kind it is binding. The settings on record: ^e noisy data. As to the method: as §4, §5, §6
Data set [8] in a line: Ca2+ binding followed through thermal stability shifts in the absence of glucose. The settings on record: 37° C. An excerpt: GGBP binds Ca^2+ at a location remote from glucose (FIG. 1). The binding of Ca^2+ was investigated in the absence of glucose (FIG. 12). […] Nevertheless, Ca^2+ binding can be followed through its effect on protein stability (FIG. 13). […] However, at elevated concentrations, this stabilization effect levels off and addition of Ca^2+ becomes destabilizing. […] These effects can be modeled accurately by a fit of the ligand- and temperature-dependent free energy of stability for Ca^2+ (Judge et al. Diabetes Technol. Thera. 2011, 13, 309-317; Layton et al. Biochemistry 2010, 49, 10831-10841). The individual terms are cast in terms of T and [Ca^2+] using equations 4-9. However, rather than fitting fluorescent landscape data directly using 1, Tm and ΔHu, values are extracted at each Ca^2+ concentration using 16 and 17, and fit to the equation system by determining the root of 19 to obtain the calculated Tm value.

Setting [9] is: trueKd at 25° C., 183C acrylodan conjugates, LightCycler 488 nm and 510 nm channels, ± = bootstrap uncertainty of fit, read-out: Kd^298K(glucose)/mM.
Where [10] appears, read: apparent, ratiometric signal at the listed wavelength pair, read-out: Affinities (mM)^d Glucose aPPKa.
Where [11] appears, read: from monochromatic signals, read-out: Affinities (mM)^d Glucose trueKa.
The mark [12] stands for this setting: 37° C., mutations in GGBP183C⋅acrylodan, read-out: glucose Kd values at 37° C.
The mark [13] stands for this setting: apparent, ratiometric signal at the listed wavelength pair, read-out: Affinities (mM)^d Galactose ^appKd.
The mark [14] stands for this setting: from monochromatic signals, read-out: Affinities (mM)^d Galactose ^trueKd.

“A155H: GGBP 183C acrylodan conjugate with mutation A155H”: the Kd was 13.5 ± 2.5 mM in data set [1] (setting [9]) and 17.7 ± 2.1 mM in data set [2]. In addition, the Tm/K in data set [3] is 314 K.
In the case of “A155N: GGBP 183C acrylodan conjugate with mutation A155N”, the Kd in data set [1] (setting [9]) was 5.9 ± 1 mM; in data set [4] (setting [10]) it was 0.14 mM; in data set [4] (setting [11]), 0.23 mM; in data set [5] (setting [12]) it was roughly 13 mM; in data set [2], 7.5 ± 1 mM; in data set [7] (setting [13]), 4.5 mM. Besides, in data set [7] (setting [14]), the Kd was found to be 6.6 mM. Moreover, the “effect of glucose binding on fluorescence” value in data set [6] (488/580 ratio) is given as “increases the 488/580 ratio”. The “Response Intensity^c” value in data set [6] was “—”. In data set [6], the “Response Shape^b” value is reported as “d”. Further, in data set [3], the Tm/K amounted to 320 K.
For “D14A: GGBP 183C acrylodan conjugate with mutation D14A”, in data set [2], the Kd was found to be 90 ± 21 mM. The Tm/K in data set [3] is recorded as 317 K.
Take “E149K: GGBP 183C acrylodan conjugate with mutation E149K”: the Kd in data set [1] (setting [9]) was 1.44 ± 0.04 mM; in data set [4] (setting [10]), 1.5 mM; in data set [4] (setting [11]), 1.2 mM; in data set [5] (setting [12]), roughly 0.5 mM; in data set [2] it was 40.2 ± 1.3 mM; in data set [7] (setting [13]), 34 mM. In data set [7] (setting [14]), the Kd is 27 mM. Besides, the “Response Intensity^c” value in data set [6] is “—”. Also, the “Response Shape^b” value in data set [6] is listed as “d”. In data set [3], the Tm/K is reported as 321 K.
Regarding “E149Q: GGBP 183C acrylodan conjugate with mutation E149Q”, the Kd in data set [1] (setting [9]) is 0.46 ± 0.01 mM; in data set [4] (setting [10]), 0.6 mM; in data set [4] (setting [11]) it was 0.43 mM; in data set [5] (setting [12]), roughly 0.5 mM; in data set [2] it was 10.8 ± 0.4 mM; in data set [7] (setting [13]), 2.3 mM. In addition, the Kd in data set [7] (setting [14]) is 2.1 mM. In addition, in data set [6], the “Response Intensity^c” value was “—”. Moreover, in data set [6], the “Response Shape^b” value is given as “d”. Moreover, the Tm/K in data set [3] came to 322 K.
As to “E149S: GGBP 183C acrylodan conjugate with mutation E149S”, the Kd is 0.34 ± 0.01 mM in data set [1] (setting [9]); 0.38 mM in data set [4] (setting [10]); 0.36 mM in data set [4] (setting [11]); roughly 0.5 mM in data set [5] (setting [12]); 12.7 ± 15 mM in data set [2]; 6.8 mM in data set [7] (setting [13]). In addition, in data set [7] (setting [14]), the Kd was determined as 5.4 mM. In addition, the “Response Intensity^c” value in data set [6] was “—”. For the same substance, the “Response Shape^b” value in data set [6] is reported as “d”. Moreover, the Tm/K in data set [3] turned out to be 320 K.
For “GGBP183C⋅acrylodan: E. coli glucose-galactose binding protein W183C mutant conjugated to acrylodan; parent sensor”, the “decrease in the affinity for glucose compared to the wild-type protein” value in data set [1] was 10,000 fold. Besides, the Kd in data set [1] (25° C., read-out: glucose constant) was 4.21 ± 0.08 mM; in data set [4] (setting [10]) it was 6 mM; in data set [4] (setting [11]) it was 4.4 mM; in data set [5] (37° C. (310K), fit of equation 18, read-out: Kd, glucose binding isotherm), 6.58 ± 0.03 mM; in data set [8] (read-out: Ca^2+ affinity in the native state at a single site) it was roughly 0.01 µM; in data set [8] (read-out: calculated Kd for Ca2+, single folded state site), 0.0108 µM. In addition, the Kd is 370 µM in data set [8] (read-out: calculated Kd for Ca2+, single, medium-affinity denatured state); 8800 µM in data set [8] (read-out: calculated Kd for Ca2+, two, low-affinity denatured states); 31 mM in data set [7] (setting [13]); 24 mM in data set [7] (setting [14]). Besides, the “Response Intensity^c” value in data set [6] is reported as “—”. In data set [6], the “Response Shape^b” value is “d”. In data set [3] (apo-protein, two-state fit), the apoTm amounted to 322.2 K. In addition, the ΔapoHu in data set [3] (apo-protein, two-state fit) was found to be 197.3 kcal/mol.
In the case of “H152N: GGBP 183C acrylodan conjugate with mutation H152N”, the Kd in data set [1] (setting [9]) is 18.8 ± 1.3 mM; in data set [4] (setting [10]), 20 mM; in data set [4] (setting [11]) it was 15 mM; in data set [5] (setting [12]) it was roughly 14 mM; in data set [7] (setting [13]) it was 21 mM; in data set [7] (setting [14]), 21 mM. Moreover, the “Response Intensity^c” value in data set [6] is listed as “—”. Also, the “Response Shape^b” value in data set [6] is on record as “d”. In addition, the Tm/K in data set [3] is given as 322 K.
“H152Q: GGBP 183C acrylodan conjugate with mutation H152Q”: the Kd is 25.8 ± 2 mM in data set [1] (setting [9]), 4.6 mM in data set [4] (setting [10]), 5.1 mM in data set [4] (setting [11]) and roughly 36 mM in data set [5] (setting [12]). Moreover, the “Response Intensity^c” value in data set [6] is reported as “—”. Further, in data set [6], the “Response Shape^b” value is recorded as “d”. In addition, the Tm/K in data set [3] was 322 K.
